Measured values as given in patent publication US20070027175A1, “Antineoplastic activities of ellipticine and its derivatives” (priority 2005, published 2007).
Where two headings read alike, the source gives them in different places.

Tests used:
[1] = system: Ark myeloma cell line; assay: CellTiter-Glo luminescent cell viability assay, Ark; assay type: cell-based, human; parameters: unit of the concentration uncertain
Procedure: (§1) The dosage of each derivative was set at 2, 0.2 and 0.02 mM. A cell culture medium control and 0.5% DMSO control was maintained in each experiment. The cell viability was tested each day over a period of five days using the CellTiter-Glo luminescent cell viability assay kit from Promega Co.
(§2) Cell Titer-Glo luminescent cell viability assay kit from Promega Co (Madison, Wis.) was used to determine cell growth inhibition by the various compounds tested. The kit determines cell viability by quantifying the amount of ATP present in the cell culture medium. Presence of ATP signals the presence of metabolically active cells (3). The intensity of luminescence was measured by a computerized luminometer (Promega, Co. Madison, Wis.). Each well was read five times within 30 minutes of adding Cell Titer-Glo reagent mixture.
(§3) Cells were contacted with the antineoplastic agents in ninety six well culture plates. The concentration of each neoplastic agent was maintained a constant. A cell culture medium control and 0.5% DMSO control were maintained in each set of experiments. The cell viability was tested every day using the CellTiter-Glo luminescent cell viability kit from Promega Co. (Madison, Wis.) for a period of five days.

[2] = system: CAG myeloma cell line; assay: CellTiter-Glo luminescent cell viability assay, CAG; assay type: cell-based, human; parameters: unit of the concentration uncertain
Procedure: as §1, §2, §3

[3] = system: RPMI8226 myeloma cell line; assay: CellTiter-Glo luminescent cell viability assay, RPMI8226; assay type: cell-based, human; parameters: unit of the concentration uncertain
Procedure: as §1
Cell Titer-Glo luminescent cell viability assay kit from Promega Co (Madison, Wis.) was used to determine cell growth inhibition by the various compounds tested. The kit determines cell viability by quantifying the amount of ATP present in the cell culture medium. Presence of ATP signals the presence of metabolically active cells (3). The intensity of luminescence was measured by a computerized luminometer (Promega, Co. Madison, Wis.). Each well was read five times within 30 minutes of adding Cell Titer-Glo reagent mixture. […]

[4] = system: U266 myeloma cell line; parameters: cell viability (CellTiter-Glo luminescent assay): dose or concentration left out as unconfirmed; details: U266
Procedure: as §1
U266 cell line was one of 12 myeloma cell lines used in screening of anti-myeloma agents. In FIG. 10A, cells were treated with 14 ellipticine derivatives (0.5 mM) obtained from the DTP; control cells were untreated. Ellipticine derivatives are coded with NSC identifiers. For 5 days, cell viability was measured every 24 hours using CellTiter-Glo Luminescent Assay. […] In FIG. 10B, U266 cells, along with six other myeloma cell lines, were co-cultured in direct contact with human fetal bone mesenchymal cells and treated with EPED3 (0.5 mM and 2 mM) or Velcade (0.5 mM); control cells were untreated. Cell proliferation was assessed by MTT assay every 24 hours for 5 days. […] Error bars indicate standard deviation.
as §2, §3

## Cc1c2ccncc2c(C)c2c1[nH]c1ccccc12 [Ellipticine, 5,11-Dimethyl-6H-Pyridol[4,3]carbazole]
[1]; 0.02 (unit uncertain), Day 1
  cell viability (CellTiter-Glo luminescent assay): 120,709
[1]; 0.02 (unit uncertain), Day 2
  cell viability (CellTiter-Glo luminescent assay): 208,608
[1]; 0.02 (unit uncertain), Day 3
  cell viability (CellTiter-Glo luminescent assay): 268,420
[1]; 0.02 (unit uncertain), Day 4
  cell viability (CellTiter-Glo luminescent assay): 802,063
[1]; 0.02 (unit uncertain), Day 5
  cell viability (CellTiter-Glo luminescent assay): 1,049,792
[1]; 0.2 (unit uncertain), Day 1
  cell viability (CellTiter-Glo luminescent assay): 125,251
[1]; 0.2 (unit uncertain), Day 2
  cell viability (CellTiter-Glo luminescent assay): 230,950
[1]; 0.2 (unit uncertain), Day 3
  cell viability (CellTiter-Glo luminescent assay): 331,985
[1]; 0.2 (unit uncertain), Day 4
  cell viability (CellTiter-Glo luminescent assay): 877,082
[1]; 0.2 (unit uncertain), Day 5
  cell viability (CellTiter-Glo luminescent assay): 1,183,902
[1]; 2 (unit uncertain), Day 1
  cell viability (CellTiter-Glo luminescent assay): 86,010
[1]; 2 (unit uncertain), Day 2
  cell viability (CellTiter-Glo luminescent assay): 98,439
[1]; 2 (unit uncertain), Day 3
  cell viability (CellTiter-Glo luminescent assay): 70,824
[1]; 2 (unit uncertain), Day 4
  cell viability (CellTiter-Glo luminescent assay): 44,913
[1]; 2 (unit uncertain), Day 5
  cell viability (CellTiter-Glo luminescent assay): 10,996
[2]; 0.02 (unit uncertain), Day 1
  cell viability (CellTiter-Glo luminescent assay): 200,429
[2]; 0.02 (unit uncertain), Day 2
  cell viability (CellTiter-Glo luminescent assay): 557,030
[2]; 0.02 (unit uncertain), Day 3
  cell viability (CellTiter-Glo luminescent assay): 1,243,718
[2]; 0.02 (unit uncertain), Day 4
  cell viability (CellTiter-Glo luminescent assay): 2,718,974
[2]; 0.02 (unit uncertain), Day 5
  cell viability (CellTiter-Glo luminescent assay): 4,443,641
[2]; 0.2 (unit uncertain), Day 1
  cell viability (CellTiter-Glo luminescent assay): 196,263
[2]; 0.2 (unit uncertain), Day 2
  cell viability (CellTiter-Glo luminescent assay): 541,300
[2]; 0.2 (unit uncertain), Day 3
  cell viability (CellTiter-Glo luminescent assay): 1,117,650
[2]; 0.2 (unit uncertain), Day 4
  cell viability (CellTiter-Glo luminescent assay): 2,568,444
[2]; 0.2 (unit uncertain), Day 5
  cell viability (CellTiter-Glo luminescent assay): 4,443,292
[2]; 2 (unit uncertain), Day 1
  cell viability (CellTiter-Glo luminescent assay): 136,450
[2]; 2 (unit uncertain), Day 2
  cell viability (CellTiter-Glo luminescent assay): 200,722
[2]; 2 (unit uncertain), Day 3
  cell viability (CellTiter-Glo luminescent assay): 234,414
[2]; 2 (unit uncertain), Day 4
  cell viability (CellTiter-Glo luminescent assay): 308,480
[2]; 2 (unit uncertain), Day 5
  cell viability (CellTiter-Glo luminescent assay): 281,302
[3]; 0.02 (unit uncertain), Day 1
  cell viability (CellTiter-Glo luminescent assay): 110,290
[3]; 0.02 (unit uncertain), Day 2
  cell viability (CellTiter-Glo luminescent assay): 244,140
[3]; 0.02 (unit uncertain), Day 3
  cell viability (CellTiter-Glo luminescent assay): 390,151
[3]; 0.02 (unit uncertain), Day 4
  cell viability (CellTiter-Glo luminescent assay): 898,067
[3]; 0.02 (unit uncertain), Day 5
  cell viability (CellTiter-Glo luminescent assay): 966,857
[3]; 0.2 (unit uncertain), Day 1
  cell viability (CellTiter-Glo luminescent assay): 107,014
[3]; 0.2 (unit uncertain), Day 2
  cell viability (CellTiter-Glo luminescent assay): 235,145
[3]; 0.2 (unit uncertain), Day 3
  cell viability (CellTiter-Glo luminescent assay): 355,794
[3]; 0.2 (unit uncertain), Day 4
  cell viability (CellTiter-Glo luminescent assay): 774,806
[3]; 0.2 (unit uncertain), Day 5
  cell viability (CellTiter-Glo luminescent assay): 921,077
[3]; 2 (unit uncertain), Day 1
  cell viability (CellTiter-Glo luminescent assay): 87,440
[3]; 2 (unit uncertain), Day 2
  cell viability (CellTiter-Glo luminescent assay): 115,263
[3]; 2 (unit uncertain), Day 3
  cell viability (CellTiter-Glo luminescent assay): 110,776
[3]; 2 (unit uncertain), Day 4
  cell viability (CellTiter-Glo luminescent assay): 126,944
[3]; 2 (unit uncertain), Day 5
  cell viability (CellTiter-Glo luminescent assay): 85,699
[4]; 0.02, Day 1
  cell viability (CellTiter-Glo luminescent assay): 31,950
[4]; 0.02, Day 2
  cell viability (CellTiter-Glo luminescent assay): 47,812
[4]; 0.02, Day 3
  cell viability (CellTiter-Glo luminescent assay): 66,571
[4]; 0.02, Day 4
  cell viability (CellTiter-Glo luminescent assay): 115,083
[4]; 0.02, Day 5
  cell viability (CellTiter-Glo luminescent assay): 152,839
[4]; 0.2, Day 1
  cell viability (CellTiter-Glo luminescent assay): 32,490
[4]; 0.2, Day 2
  cell viability (CellTiter-Glo luminescent assay): 47,622
[4]; 0.2, Day 3
  cell viability (CellTiter-Glo luminescent assay): 62,648
[4]; 0.2, Day 4
  cell viability (CellTiter-Glo luminescent assay): 106,989
[4]; 0.2, Day 5
  cell viability (CellTiter-Glo luminescent assay): 132,439
[4]; 2, Day 1
  cell viability (CellTiter-Glo luminescent assay): 23,680
[4]; 2, Day 2
  cell viability (CellTiter-Glo luminescent assay): 31,682
[4]; 2, Day 3
  cell viability (CellTiter-Glo luminescent assay): 33,129
[4]; 2, Day 4
  cell viability (CellTiter-Glo luminescent assay): 40,656
[4]; 2, Day 5
  cell viability (CellTiter-Glo luminescent assay): 38,403
